Results: ChEMBL document CHEMBL1201862, “PubChem BioAssay data set” (2004)
Calls of active or inactive are those of the source.

Experiments:
[1] = target: Peroxisome proliferator-activated receptor gamma/Nuclear receptor coactivator 2 (Homo sapiens, UniProt P37231); assay: (§1) TR-FRET dose response biochemical High Throughput Screening assay for agonists of the steroid receptor coactivator 2 (SRC-2) recruitment by the peroxisome proliferator-activated receptor gamma (PPAR gamma): non-selective agonists. [Related pubchem assays: 1297, 1032 ]; assay type: functional
fMet-Leu-Phe receptor = target: T1, fMet-Leu-Phe receptor (Homo sapiens, UniProt P21462); assay: FPR ligands, dose response (AID 519); assay type: functional
T1 sequence (P21462 whole entry): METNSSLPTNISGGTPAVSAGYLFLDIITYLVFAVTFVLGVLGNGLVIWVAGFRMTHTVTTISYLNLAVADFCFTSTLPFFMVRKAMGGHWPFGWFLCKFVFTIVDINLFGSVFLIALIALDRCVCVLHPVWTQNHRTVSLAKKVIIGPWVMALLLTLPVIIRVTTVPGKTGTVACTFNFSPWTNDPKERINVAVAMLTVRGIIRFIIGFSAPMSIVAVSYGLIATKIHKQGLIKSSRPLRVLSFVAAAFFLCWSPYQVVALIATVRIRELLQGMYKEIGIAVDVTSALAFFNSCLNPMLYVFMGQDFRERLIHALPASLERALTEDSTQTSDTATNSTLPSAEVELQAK

[2] = target: Peroxisome proliferator-activated receptor gamma/Nuclear receptor coactivator 3 (Homo sapiens, UniProt P37231); assay: as §1, with “3 (SRC-3)” for “2 (SRC-2)”, “1301 (Confirmation screen.), 1048 (Primary screen.)]” for “1297, 1032 ]”; assay type: functional
[3] = target: Peroxisome proliferator-activated receptor gamma/Nuclear receptor coactivator 1 (Homo sapiens, UniProt P37231); assay: as §1, with “1 (SRC-1)” for “2 (SRC-2)”, “assays (depositor defined):AID1300, AID1808, AID504735, AID631]” for “assays: 1297, 1032 ]”; assay type: protein assay
[4] = Luminescence Cell-Based Dose Retest to Confirm Inhibitors of Cancer Stem Cells. [Related pubchem assays (depositor defined):AID2717, AID2721]; assay type: functional; details: Homo sapiens
Kallikrein-7 = Kallikrein-7 (Homo sapiens, UniProt P49862); assay: Fluorescence Intensity-based biochemical primary high throughput dose response assay to identify activators of kallikrein-7 (K7) zymogen.
[5] = inhibitors of intracellular T. cruzi replication, confirmation, NIH3T3 host cells, beta-gal luminescence (AID 2044); assay type: functional, cell-based;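 note: intracellular parasites grown in NIH/3T3 mouse fibroblasts as host cells; luminescent beta-galactosidase reporter signal from transgenic T. cruzi replicating inside host cells; inhibitors lower the luminescence signal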
[6] = cytotoxicity toward NIH3T3 fibroblasts, dose response, counter-screen, cell-based, ATP luminescence, mouse fibroblasts (AID 2010); assay type: functional;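 note: cells exposed to compound for about 90 hours before reading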
[7] = C. albicans growth with fluconazole, confirmation, fluorescence, retest (AID 2467); assay type: functional, cell-based
cells = details: HEK293
[8] = NIH-3T3 fibroblast cytotoxicity, dose response, cytotoxicity control, cell-based, fluorescence, Alamar Blue, secondary assay (AID 2327); assay type: functional;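 note: NIH-3T3 mouse fibroblasts cultured with fluconazole at 8 µg/mL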
Protein skinhead-1 = target: T2, Protein skinhead-1 (Caenorhabditis elegans, UniProt P34707); assay type: functional
T2 sequence (P34707 whole entry): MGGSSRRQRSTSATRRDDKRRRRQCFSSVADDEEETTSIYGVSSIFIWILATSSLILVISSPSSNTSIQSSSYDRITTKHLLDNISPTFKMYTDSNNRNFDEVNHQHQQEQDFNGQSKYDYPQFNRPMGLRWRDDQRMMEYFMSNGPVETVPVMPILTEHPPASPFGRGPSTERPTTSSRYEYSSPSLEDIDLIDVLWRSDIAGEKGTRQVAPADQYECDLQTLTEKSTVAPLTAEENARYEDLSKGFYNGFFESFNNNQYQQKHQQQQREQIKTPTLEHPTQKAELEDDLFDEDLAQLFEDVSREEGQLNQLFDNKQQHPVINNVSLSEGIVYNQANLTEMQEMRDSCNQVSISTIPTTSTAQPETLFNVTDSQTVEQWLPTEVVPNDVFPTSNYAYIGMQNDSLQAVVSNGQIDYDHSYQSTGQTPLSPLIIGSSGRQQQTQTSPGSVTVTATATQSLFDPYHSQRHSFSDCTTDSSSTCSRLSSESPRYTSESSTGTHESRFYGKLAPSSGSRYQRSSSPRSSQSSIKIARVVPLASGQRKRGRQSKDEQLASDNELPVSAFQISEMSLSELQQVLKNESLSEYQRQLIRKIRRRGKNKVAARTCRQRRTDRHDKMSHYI

[9] = NIH:OVCAR-3 ovarian cancer cell cytotoxicity, dose response, PAX8 inhibitor project, plate reader, dry powder samples (AID 743044); assay type: functional, cell-based
Paired box protein Pax-8 = Paired box protein Pax-8 (Homo sapiens, UniProt Q06710); assay: inhibitors of PAX8-driven TPO luciferase reporter, dose response, RMG-I cells, cherry-pick (AID 687027); assay type: functional, cell-based;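 note: luciferase reporter driven by Pax8 target thyroperoxidase promoter measured by SteadyGlo luminescence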
[10] = A2780 ovarian cancer cell cytotoxicity, dose response, cytotoxicity control, plate reader, dry powder samples (AID 743046); assay type: functional, cell-based
[11] = cytotoxicity in OVCAR8 ovarian cancer cells, dose response, PAX8 project, cell-based, plate reader, dry powder samples (AID 743197); assay type: functional; details: OVCAR-8
[12] = A375 melanoma cell cytotoxicity, dose response, counter-screen for MITF inhibitor project, CellTiter-Glo luminescence, dry powder, set 2 (AID 624489); assay type: functional, cell-based; details: A-375;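 note: actives are compounds lowering A375 viability meaning general cytotoxicity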
[13] = A375 melanoma cell viability loss, dose response, counter-screen for MITF inhibitor project, CellTiter-Glo luminescence, dry powder, set 4 (AID 624364); assay type: functional, cell-based; details: A-375;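 note: A375 melanoma cells are MITF independent so this is a counter screen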
[14] = Dose-response inhibition of insulin secretion in a rat insulinoma line at 5 mM glucose (AID 1117331); assay type: functional, cell-based; details: INS-1E

Chain of Kallikrein-7 (P49862 whole entry): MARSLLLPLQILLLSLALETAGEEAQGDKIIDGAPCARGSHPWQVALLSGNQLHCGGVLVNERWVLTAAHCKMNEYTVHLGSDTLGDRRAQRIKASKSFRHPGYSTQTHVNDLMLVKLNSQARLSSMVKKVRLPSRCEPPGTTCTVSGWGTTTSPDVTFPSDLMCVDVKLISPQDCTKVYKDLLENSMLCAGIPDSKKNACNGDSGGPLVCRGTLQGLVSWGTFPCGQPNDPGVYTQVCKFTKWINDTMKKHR
Chain of Peroxisome proliferator-activated receptor gamma/Nuclear receptor coactivator 3 (P37231 whole entry): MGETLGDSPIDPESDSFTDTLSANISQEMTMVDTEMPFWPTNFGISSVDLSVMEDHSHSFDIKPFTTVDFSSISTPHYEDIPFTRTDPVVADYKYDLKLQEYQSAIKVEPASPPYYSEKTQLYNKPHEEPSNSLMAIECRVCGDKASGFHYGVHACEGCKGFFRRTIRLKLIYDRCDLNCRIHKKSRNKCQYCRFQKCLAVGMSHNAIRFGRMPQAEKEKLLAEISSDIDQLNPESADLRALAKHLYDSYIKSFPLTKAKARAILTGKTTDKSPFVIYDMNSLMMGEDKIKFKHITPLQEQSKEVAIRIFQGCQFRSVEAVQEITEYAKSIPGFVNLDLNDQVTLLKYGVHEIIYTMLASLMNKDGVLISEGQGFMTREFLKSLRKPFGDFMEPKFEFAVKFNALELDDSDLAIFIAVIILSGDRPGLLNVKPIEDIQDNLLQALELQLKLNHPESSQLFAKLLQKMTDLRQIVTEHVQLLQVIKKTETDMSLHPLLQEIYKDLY
Chain of Peroxisome proliferator-activated receptor gamma/Nuclear receptor coactivator 3 (Q9Y6Q9 whole entry, further chain): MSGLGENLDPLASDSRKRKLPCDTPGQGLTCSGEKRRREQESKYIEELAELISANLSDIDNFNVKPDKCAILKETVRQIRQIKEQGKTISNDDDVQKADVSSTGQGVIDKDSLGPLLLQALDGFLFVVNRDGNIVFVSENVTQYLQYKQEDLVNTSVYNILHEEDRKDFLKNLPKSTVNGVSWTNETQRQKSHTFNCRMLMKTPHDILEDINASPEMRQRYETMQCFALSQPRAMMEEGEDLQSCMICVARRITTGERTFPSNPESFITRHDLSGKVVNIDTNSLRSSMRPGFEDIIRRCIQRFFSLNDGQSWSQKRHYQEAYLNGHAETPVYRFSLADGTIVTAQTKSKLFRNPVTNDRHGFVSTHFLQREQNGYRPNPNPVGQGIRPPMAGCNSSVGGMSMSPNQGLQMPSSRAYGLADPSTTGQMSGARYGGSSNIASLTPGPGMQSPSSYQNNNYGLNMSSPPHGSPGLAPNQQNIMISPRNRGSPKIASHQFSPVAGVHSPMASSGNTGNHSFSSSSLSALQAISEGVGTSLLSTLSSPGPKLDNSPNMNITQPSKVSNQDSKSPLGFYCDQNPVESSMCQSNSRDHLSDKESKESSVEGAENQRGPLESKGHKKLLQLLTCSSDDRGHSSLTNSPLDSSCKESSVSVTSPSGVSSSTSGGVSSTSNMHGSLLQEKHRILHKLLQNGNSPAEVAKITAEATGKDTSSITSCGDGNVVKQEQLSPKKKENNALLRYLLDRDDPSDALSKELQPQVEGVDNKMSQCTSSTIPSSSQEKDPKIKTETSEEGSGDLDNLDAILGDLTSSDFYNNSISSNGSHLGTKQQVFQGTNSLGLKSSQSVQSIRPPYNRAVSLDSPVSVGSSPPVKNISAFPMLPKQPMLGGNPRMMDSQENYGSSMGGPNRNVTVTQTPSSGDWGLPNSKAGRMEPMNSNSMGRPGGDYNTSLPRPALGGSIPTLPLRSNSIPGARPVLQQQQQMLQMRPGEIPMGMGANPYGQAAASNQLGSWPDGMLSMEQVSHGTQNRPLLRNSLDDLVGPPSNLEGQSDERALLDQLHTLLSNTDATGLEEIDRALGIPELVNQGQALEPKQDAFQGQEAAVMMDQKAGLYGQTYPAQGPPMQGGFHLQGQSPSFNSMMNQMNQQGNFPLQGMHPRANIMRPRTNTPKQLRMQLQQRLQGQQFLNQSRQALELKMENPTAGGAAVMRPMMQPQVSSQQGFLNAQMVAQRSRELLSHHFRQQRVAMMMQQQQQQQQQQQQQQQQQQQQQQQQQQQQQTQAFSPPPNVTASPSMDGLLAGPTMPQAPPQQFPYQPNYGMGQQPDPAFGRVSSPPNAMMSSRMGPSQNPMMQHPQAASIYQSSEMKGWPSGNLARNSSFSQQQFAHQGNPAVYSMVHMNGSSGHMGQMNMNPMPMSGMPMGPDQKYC
Chain of Peroxisome proliferator-activated receptor gamma/Nuclear receptor coactivator 2 (P37231 whole entry): as the sequence (P37231 whole entry) above
Chain of Peroxisome proliferator-activated receptor gamma/Nuclear receptor coactivator 2 (Q15596 whole entry, further chain): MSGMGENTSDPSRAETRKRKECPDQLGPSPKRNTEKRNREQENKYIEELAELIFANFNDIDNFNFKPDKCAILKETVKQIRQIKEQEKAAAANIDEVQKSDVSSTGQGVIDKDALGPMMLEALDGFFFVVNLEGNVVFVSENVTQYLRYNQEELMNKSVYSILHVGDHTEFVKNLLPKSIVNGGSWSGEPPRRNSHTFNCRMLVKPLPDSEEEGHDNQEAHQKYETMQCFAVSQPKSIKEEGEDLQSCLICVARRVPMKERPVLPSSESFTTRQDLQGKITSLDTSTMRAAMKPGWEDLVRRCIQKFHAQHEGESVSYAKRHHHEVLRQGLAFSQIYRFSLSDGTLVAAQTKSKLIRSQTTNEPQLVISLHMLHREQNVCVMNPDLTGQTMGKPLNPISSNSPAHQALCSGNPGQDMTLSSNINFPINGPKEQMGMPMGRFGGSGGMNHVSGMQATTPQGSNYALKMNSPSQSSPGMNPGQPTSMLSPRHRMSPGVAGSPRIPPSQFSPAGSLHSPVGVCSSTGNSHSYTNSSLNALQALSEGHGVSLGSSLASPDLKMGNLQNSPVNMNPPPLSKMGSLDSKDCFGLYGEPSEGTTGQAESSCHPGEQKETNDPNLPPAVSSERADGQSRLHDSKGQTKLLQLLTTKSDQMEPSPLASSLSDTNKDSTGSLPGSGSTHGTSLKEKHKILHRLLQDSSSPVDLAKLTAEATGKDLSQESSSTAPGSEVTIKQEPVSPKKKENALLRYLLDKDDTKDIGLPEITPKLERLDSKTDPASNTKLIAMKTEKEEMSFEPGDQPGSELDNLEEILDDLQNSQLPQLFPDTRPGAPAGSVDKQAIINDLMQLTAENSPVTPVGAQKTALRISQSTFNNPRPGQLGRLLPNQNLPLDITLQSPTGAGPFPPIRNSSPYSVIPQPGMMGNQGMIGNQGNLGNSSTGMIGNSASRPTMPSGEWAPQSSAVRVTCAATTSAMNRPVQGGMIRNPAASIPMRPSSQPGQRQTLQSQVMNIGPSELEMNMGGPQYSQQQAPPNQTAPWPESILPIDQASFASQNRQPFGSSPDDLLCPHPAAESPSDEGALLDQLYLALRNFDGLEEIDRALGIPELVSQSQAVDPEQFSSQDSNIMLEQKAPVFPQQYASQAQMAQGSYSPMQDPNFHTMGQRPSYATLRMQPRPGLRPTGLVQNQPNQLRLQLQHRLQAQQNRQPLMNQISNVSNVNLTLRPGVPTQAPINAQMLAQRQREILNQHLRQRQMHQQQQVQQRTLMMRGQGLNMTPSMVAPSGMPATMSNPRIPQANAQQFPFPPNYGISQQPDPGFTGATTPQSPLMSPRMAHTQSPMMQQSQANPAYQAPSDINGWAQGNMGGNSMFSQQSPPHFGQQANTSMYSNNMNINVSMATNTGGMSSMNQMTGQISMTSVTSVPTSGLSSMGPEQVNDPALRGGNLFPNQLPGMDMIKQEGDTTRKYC
Chain of Paired box protein Pax-8 (Q06710 whole entry): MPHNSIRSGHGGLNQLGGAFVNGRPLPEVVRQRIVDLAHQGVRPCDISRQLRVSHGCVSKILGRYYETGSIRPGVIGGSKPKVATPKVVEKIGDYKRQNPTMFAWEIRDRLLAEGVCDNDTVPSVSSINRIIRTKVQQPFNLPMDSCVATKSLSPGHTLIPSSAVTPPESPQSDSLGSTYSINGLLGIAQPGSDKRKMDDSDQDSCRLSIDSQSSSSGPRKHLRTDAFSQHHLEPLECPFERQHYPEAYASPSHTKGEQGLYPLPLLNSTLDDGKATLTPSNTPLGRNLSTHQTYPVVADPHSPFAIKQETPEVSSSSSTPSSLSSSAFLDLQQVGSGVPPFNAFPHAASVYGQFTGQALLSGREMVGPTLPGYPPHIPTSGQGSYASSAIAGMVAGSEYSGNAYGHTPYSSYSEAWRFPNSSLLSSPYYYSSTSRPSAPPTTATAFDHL

## COc1ccc(C(=O)C2=C(O)C(=O)N(c3nc(C)c(C)s3)C2c2ccco2)cc1 (configuration not stated)
[1]
  EC50: 37.9 µM (not active)
fMet-Leu-Phe receptor
  Ki: > 66.7 µM (inactive)
[2]
  EC50: > 79.4 µM (not active)
[3]
  EC50: > 79.4 µM (inactive)

## Cc1cc(Nc2cccc(F)c2)nc(-c2ccccc2O)n1
[4]
  AC50: 3.68 µM (active)
Kallikrein-7
  EC50: > 69.5 µM (inactive)
[5]
  EC50: 4.15 µM (active)
[6]
  EC50: > 60 µM (not active)

## CCc1cccc(C)c1N=C(S)NCc1ccc2c(c1)cc(C)n2C
[7]
  EC50: > 38 µM (not active)
cells
  AC50: > 52 µM (inactive)
[8]
  EC50: 51.5 µM (active)
Protein skinhead-1
  IC50: > 100 µM (inactive)

## Cc1ccc(NC(=O)C2=CC(c3cccs3)=NS(=O)(=O)N2C)cc1
Kallikrein-7
  EC50: 33.9 µM (inactive)

## C[C@@H]1CCCCO[C@H](CN(C)C(=O)Cc2ccccc2)[C@@H](C)CN([C@@H](C)CO)C(=O)c2cc(NC(=O)Nc3ccc(C(F)(F)F)cc3)ccc2O1
[9]
  AC50: 54.5 µM (active)
Paired box protein Pax-8
  AC50: 2.85 µM (active)
[10]
  AC50: 54.7 µM (active)
[11]
  AC50: 58.8 µM (active)

## NC1=C(c2ccc(OC(F)(F)F)cc2)C(=O)c2ccccc2C1=O
[12]
  AC50: > 70 µM (inactive)
[13]
  AC50: > 70 µM (inactive)

## CC(=O)N(C)C1=C(N2CCCCC2)C(=O)c2ccccc2C1=O
[12]
  AC50: 14.8 µM (active)
[13]
  AC50: 27.1 µM (active)

## CC(CCc1ccccc1)NC(C)C(O)c1ccc(O)cc1 (configuration not stated) [NYLIDRIN]
[14]
  IC50: 14.5 µM (inactive)
